{"source": "patent US20220071925A1", "about": "“MEDICINAL COMPOSITION FOR PREVENTING OR TREATING BONE DISEASES” (GEXVAL INC., priority 2019, published 2022)", "key": {"R264.7 cells": {"system": "R264.7 cells", "test": "Combined effect of compounds on LPS-stimulated mouse macrophage-derived cells, gene expression by RNA sequencing (Test Example 2)", "format": "cell-based", "settings": "LPS 100 ng/mL 24 h, free fatty acid (stearic acid) 10 μM, Fasiglifam 10 μM, alone or in combination", "protocol": "The combined effect of the compounds on the change when macrophage cells were stimulated by lipopolysaccharide (LPS) derived from bacteria was examined by integrated gene expression analysis using RNA next-generation sequencing. […].7 cells purchased from KAC Co., Ltd. were used in the test. The cells were suspended in DMEM with 10% serum, seeded in a 24-well plate at a concentration of 1.6×10^5 cells/well, and cultured at 37° C. under a 5% CO2 condition. 30 minutes prior to addition of LPS, a free fatty acid at 10 μM and Fasiglifam at 10 μM were added alone or in combination. Stearic acid was used as the free fatty acid. After culturing for 30 minutes after addition of the compound, LPS was added to each well at a concentration of 100 ng/mL. PBS of the same amount as LPS was added to a non-stimulated control group. After culturing for 24 hours with the addition of LPS, the medium was removed, and total RNA was extracted using RNeasy (QIAGEN). mRNA was recovered from the total RNA to prepare a library, and RNA sequencing (Illumina Hiseq) was performed. Samples from the following five groups were sequenced, and the expression level of each gene was estimated from the obtained read count data. […] Further, these expression-fluctuated genes were subjected to a pathway analysis to examine their association with the disease."}, "GPR40": {"target": "GPR40 (Homo sapiens, UniProt O14842)", "sequence (O14842 whole entry, species assumed)": "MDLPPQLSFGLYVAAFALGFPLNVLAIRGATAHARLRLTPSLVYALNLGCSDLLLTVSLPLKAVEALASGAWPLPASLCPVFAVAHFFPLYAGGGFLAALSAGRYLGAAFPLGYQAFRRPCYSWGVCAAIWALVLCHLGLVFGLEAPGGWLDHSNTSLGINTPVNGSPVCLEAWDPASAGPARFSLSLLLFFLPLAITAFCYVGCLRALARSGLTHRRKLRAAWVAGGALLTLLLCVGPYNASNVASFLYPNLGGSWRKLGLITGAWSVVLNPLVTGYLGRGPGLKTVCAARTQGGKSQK", "settings": "cited from earlier work"}, "[1]": {"settings": "in vivo; cited from earlier work"}, "osteoclasts [2]": {"system": "osteoclasts", "settings": "action of GW9508 on GPR40; cited from earlier work"}, "osteoclasts [3]": {"system": "osteoclasts", "settings": "caused by interaction of osteoclasts (RANK) with osteoblasts (RANKL); cited from earlier work"}}}
{"smiles": "CCCCCCCCCCCCCCCCCC(=O)O", "note": "[Fatty acid, Stearic acid]", "values": [{"measurement": "AAAS expression level", "setting": "R264.7 cells", "result": 0}, {"measurement": "BCL2L1 expression level", "setting": "R264.7 cells", "result": 0}, {"measurement": "C3AR1 expression level", "setting": "R264.7 cells", "result": 0}, {"measurement": "CCL2 expression level", "setting": "R264.7 cells", "result": 0}, {"measurement": "CCL3 expression level", "setting": "R264.7 cells", "result": 0}, {"measurement": "CCL4 expression level", "setting": "R264.7 cells", "result": 0}, {"measurement": "CD36 expression level", "setting": "R264.7 cells", "result": 0}, {"measurement": "CSF1R expression level", "setting": "R264.7 cells", "result": 0}, {"measurement": "CSF3 expression level", "setting": "R264.7 cells", "result": 0}, {"measurement": "DUSP5 expression level", "setting": "R264.7 cells", "result": 0}, {"measurement": "EIF4B expression level", "setting": "R264.7 cells", "result": 0}, {"measurement": "EIF4G2 expression level", "setting": "R264.7 cells", "result": 0}, {"measurement": "GBP7 expression level", "setting": "R264.7 cells", "result": 0}, {"measurement": "GRIN1 expression level", "setting": "R264.7 cells", "result": 0}, {"measurement": "IL7R expression level", "setting": "R264.7 cells", "result": 0}, {"measurement": "IP6K2 expression level", "setting": "R264.7 cells", "result": 0}, {"measurement": "LYN expression level", "setting": "R264.7 cells", "result": 0}, {"measurement": "NF1 expression level", "setting": "R264.7 cells", "result": 0}, {"measurement": "NOS2 expression level", "setting": "R264.7 cells", "result": 0}, {"measurement": "PIK3CD expression level", "setting": "R264.7 cells", "result": 0}, {"measurement": "PIM1 expression level", "setting": "R264.7 cells", "result": 0}, {"measurement": "PIP5K1C expression level", "setting": "R264.7 cells", "result": 0}, {"measurement": "PLAUR expression level", "setting": "R264.7 cells", "result": 0}, {"measurement": "PLEKHO2 expression level", "setting": "R264.7 cells", "result": 0}, {"measurement": "PPP2CA expression level", "setting": "R264.7 cells", "result": 0}, {"measurement": "PSMA6 expression level", "setting": "R264.7 cells", "result": 0}, {"measurement": "PSMA7 expression level", "setting": "R264.7 cells", "result": 0}, {"measurement": "PSMC2 expression level", "setting": "R264.7 cells", "result": 0}, {"measurement": "PSMD13 expression level", "setting": "R264.7 cells", "result": 0}, {"measurement": "PYGB expression level", "setting": "R264.7 cells", "result": 0}, {"measurement": "RASGRP3 expression level", "setting": "R264.7 cells", "result": 0}, {"measurement": "SDCBP expression level", "setting": "R264.7 cells", "result": 0}, {"measurement": "SMPD1 expression level", "setting": "R264.7 cells", "result": 0}, {"measurement": "SUMO1 expression level", "setting": "R264.7 cells", "result": 0}, {"measurement": "TNF expression level", "setting": "R264.7 cells", "result": 0}, {"measurement": "TNFRSF1B expression level", "setting": "R264.7 cells", "result": 0}, {"measurement": "TNFSF8 expression level", "setting": "R264.7 cells", "result": 0}, {"measurement": "TNRC6B expression level", "setting": "R264.7 cells", "result": 0}]}
{"smiles": "Cc1cc(OCCCS(C)(=O)=O)cc(C)c1-c1cccc(COc2ccc3c(c2)OC[C@H]3CC(=O)O)c1", "note": "[Fasiglifam, [(3S)-6-({2′,6′-dimethyl-4′-[3-(methylsulfonyl)propoxy]biphenyl-3-yl}methoxy)-2,3-dihydro-1-benzofuran-3-yl]acetic acid]", "values": [{"measurement": "AAAS expression level", "setting": "R264.7 cells", "result": 0}, {"measurement": "BCL2L1 expression level", "setting": "R264.7 cells", "result": 0}, {"measurement": "C3AR1 expression level", "setting": "R264.7 cells", "result": 0}, {"measurement": "CCL2 expression level", "setting": "R264.7 cells", "result": 0}, {"measurement": "CCL3 expression level", "setting": "R264.7 cells", "result": 0}, {"measurement": "CCL4 expression level", "setting": "R264.7 cells", "result": 0}, {"measurement": "CD36 expression level", "setting": "R264.7 cells", "result": 0}, {"measurement": "CSF1R expression level", "setting": "R264.7 cells", "result": 0}, {"measurement": "CSF3 expression level", "setting": "R264.7 cells", "result": 0}, {"measurement": "DUSP5 expression level", "setting": "R264.7 cells", "result": 0}, {"measurement": "EIF4B expression level", "setting": "R264.7 cells", "result": 0}, {"measurement": "EIF4G2 expression level", "setting": "R264.7 cells", "result": 0}, {"measurement": "GBP7 expression level", "setting": "R264.7 cells", "result": 0}, {"measurement": "GRIN1 expression level", "setting": "R264.7 cells", "result": 0}, {"measurement": "IL7R expression level", "setting": "R264.7 cells", "result": 0}, {"measurement": "IP6K2 expression level", "setting": "R264.7 cells", "result": 0}, {"measurement": "LYN expression level", "setting": "R264.7 cells", "result": 0}, {"measurement": "NF1 expression level", "setting": "R264.7 cells", "result": 0}, {"measurement": "NOS2 expression level", "setting": "R264.7 cells", "result": 0}, {"measurement": "PIK3CD expression level", "setting": "R264.7 cells", "result": 0}, {"measurement": "PIM1 expression level", "setting": "R264.7 cells", "result": 0}, {"measurement": "PIP5K1C expression level", "setting": "R264.7 cells", "result": 0}, {"measurement": "PLAUR expression level", "setting": "R264.7 cells", "result": 0}, {"measurement": "PLEKHO2 expression level", "setting": "R264.7 cells", "result": 0}, {"measurement": "PPP2CA expression level", "setting": "R264.7 cells", "result": 0}, {"measurement": "PSMA6 expression level", "setting": "R264.7 cells", "result": 0}, {"measurement": "PSMA7 expression level", "setting": "R264.7 cells", "result": 0}, {"measurement": "PSMC2 expression level", "setting": "R264.7 cells", "result": 0}, {"measurement": "PSMD13 expression level", "setting": "R264.7 cells", "result": 0}, {"measurement": "PYGB expression level", "setting": "R264.7 cells", "result": 0}, {"measurement": "RASGRP3 expression level", "setting": "R264.7 cells", "result": 0}, {"measurement": "SDCBP expression level", "setting": "R264.7 cells", "result": 0}, {"measurement": "SMPD1 expression level", "setting": "R264.7 cells", "result": 0}, {"measurement": "SUMO1 expression level", "setting": "R264.7 cells", "result": 0}, {"measurement": "TNF expression level", "setting": "R264.7 cells", "result": 0}, {"measurement": "TNFRSF1B expression level", "setting": "R264.7 cells", "result": 0}, {"measurement": "TNFSF8 expression level", "setting": "R264.7 cells", "result": 0}, {"measurement": "TNRC6B expression level", "setting": "R264.7 cells", "result": 0}, {"measurement": "agonist selectivity GPR40 versus GPR120", "setting": "GPR40", "result": "selective agonist for GPR40"}]}
{"smiles": "O=C(O)CCc1ccc(NCc2cccc(Oc3ccccc3)c2)cc1", "note": "[GW9508]", "values": [{"measurement": "bone loss due to ovariectomy", "setting": "[1]", "result": "bone loss due to ovariectomy can be prevented"}, {"measurement": "agonist selectivity GPR40 versus GPR120", "setting": "GPR40", "result": "dual agonist for GPR40 and GPR120"}, {"measurement": "differentiation into osteoclasts", "setting": "osteoclasts [2]", "result": "the differentiation into osteoclasts is suppressed"}, {"measurement": "formation of osteoclasts (differentiation and maturation into osteoclasts)", "setting": "osteoclasts [3]", "result": "suppressing the formation of osteoclasts"}]}
